# Assay results: PMC7385619, “A triple action CDK4/6-PI3K-BET inhibitor with augmented cancer cell cytotoxicity” (Cell Discovery, 2020)
# Legend:
# Experiment in all cases: KINOMEscan assay (Eurofins DiscoverX)
# Type in all cases: binding
# kinome (kinase panel) [1] = biological target: T1, kinome (kinase panel) (Homo sapiens, UniProt Q99759); details: MAP3K3; 1000 nM; read-out: Percent Control
# T1 construct: purchased Eurofins DiscoverX
# kinome (kinase panel) [2] = biological target: T2, kinome (kinase panel) (Homo sapiens, UniProt Q9P2K8, S808G); details: read-out: Percent Control
# T2 construct: purchased Eurofins DiscoverX
# kinome (kinase panel) [3] = biological target: T3, kinome (kinase panel) (Homo sapiens, UniProt Q96Q40); details: PFTAIRE2 (Entrez CDK15); 1000 nM; read-out: Percent Control
# T3 construct: purchased Eurofins DiscoverX
# T3 sequence (Q96Q40 whole entry): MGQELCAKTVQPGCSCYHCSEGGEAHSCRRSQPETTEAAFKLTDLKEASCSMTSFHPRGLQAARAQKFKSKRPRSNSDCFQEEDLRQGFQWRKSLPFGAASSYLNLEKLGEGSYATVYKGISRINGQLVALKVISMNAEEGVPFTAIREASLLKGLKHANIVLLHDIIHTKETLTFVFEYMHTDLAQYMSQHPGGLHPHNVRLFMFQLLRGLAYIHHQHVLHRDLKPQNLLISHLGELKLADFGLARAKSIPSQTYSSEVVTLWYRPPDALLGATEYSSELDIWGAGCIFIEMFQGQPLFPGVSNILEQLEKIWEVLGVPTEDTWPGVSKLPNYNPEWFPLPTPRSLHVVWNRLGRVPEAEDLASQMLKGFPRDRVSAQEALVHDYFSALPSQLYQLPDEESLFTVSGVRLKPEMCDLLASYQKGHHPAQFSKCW
# kinome (kinase panel) [4] = biological target: T4, kinome (kinase panel) (Homo sapiens, UniProt P00533, G719S); details: […]; 1000 nM; read-out: Percent Control
# T4 construct: purchased Eurofins DiscoverX
# kinome (kinase panel) [5] = biological target: T5, kinome (kinase panel) (Homo sapiens, UniProt Q15831); details: LKB1 (Entrez STK11); 1000 nM; read-out: Percent Control
# T5 construct: purchased Eurofins DiscoverX
# kinome (kinase panel) [6] = biological target: T6, kinome (kinase panel) (Homo sapiens, UniProt P42336, E542K); details: read-out: Percent Control
# T6 construct: purchased Eurofins DiscoverX
# kinome (kinase panel) [7] = biological target: T7, kinome (kinase panel) (Homo sapiens, UniProt Q15208); details: NDR1 (Entrez STK38); 1000 nM; read-out: Percent Control
# T7 construct: purchased Eurofins DiscoverX
# T7 sequence (Q15208 whole entry): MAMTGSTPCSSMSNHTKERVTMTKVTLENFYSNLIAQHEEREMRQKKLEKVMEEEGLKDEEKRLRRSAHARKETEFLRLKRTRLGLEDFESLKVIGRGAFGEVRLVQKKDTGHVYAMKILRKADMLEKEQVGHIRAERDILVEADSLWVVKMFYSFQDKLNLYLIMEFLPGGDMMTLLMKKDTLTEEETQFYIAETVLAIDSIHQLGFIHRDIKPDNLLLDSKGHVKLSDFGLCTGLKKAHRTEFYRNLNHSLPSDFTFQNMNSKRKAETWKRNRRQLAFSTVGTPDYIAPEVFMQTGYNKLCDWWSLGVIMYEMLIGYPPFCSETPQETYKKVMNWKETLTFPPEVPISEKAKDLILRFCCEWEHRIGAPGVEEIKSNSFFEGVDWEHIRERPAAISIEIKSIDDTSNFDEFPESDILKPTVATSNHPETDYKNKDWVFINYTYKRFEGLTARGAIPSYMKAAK
# kinome (kinase panel) [8] = biological target: T8, kinome (kinase panel) (Homo sapiens, UniProt Q8IWQ3); details: BRSK2; 1000 nM; read-out: Percent Control
# T8 construct: purchased Eurofins DiscoverX
# kinome (kinase panel) [9] = biological target: T9, kinome (kinase panel) (Homo sapiens, UniProt Q9UQ88); details: CDC2L2; 1000 nM; read-out: Percent Control
# T9 construct: purchased Eurofins DiscoverX
# kinome (kinase panel) [10] = biological target: T10, kinome (kinase panel) (Homo sapiens, UniProt P54753); details: EPHB3; 1000 nM; read-out: Percent Control
# T10 construct: purchased Eurofins DiscoverX
# kinome (kinase panel) [11] = biological target: T11, kinome (kinase panel) (Homo sapiens, UniProt P36896); details: ACVR1B; 1000 nM; read-out: Percent Control
# T11 construct: purchased Eurofins DiscoverX
# kinome (kinase panel) [12] = biological target: T12, kinome (kinase panel) (Homo sapiens, UniProt Q9P0L2); details: MARK1; 1000 nM; read-out: Percent Control
# T12 construct: purchased Eurofins DiscoverX
# kinome (kinase panel) [13] = biological target: T13, kinome (kinase panel) (Homo sapiens, UniProt Q16659); details: ERK3 (Entrez MAPK6); 1000 nM; read-out: Percent Control
# T13 construct: purchased Eurofins DiscoverX
# T13 sequence (Q16659 whole entry): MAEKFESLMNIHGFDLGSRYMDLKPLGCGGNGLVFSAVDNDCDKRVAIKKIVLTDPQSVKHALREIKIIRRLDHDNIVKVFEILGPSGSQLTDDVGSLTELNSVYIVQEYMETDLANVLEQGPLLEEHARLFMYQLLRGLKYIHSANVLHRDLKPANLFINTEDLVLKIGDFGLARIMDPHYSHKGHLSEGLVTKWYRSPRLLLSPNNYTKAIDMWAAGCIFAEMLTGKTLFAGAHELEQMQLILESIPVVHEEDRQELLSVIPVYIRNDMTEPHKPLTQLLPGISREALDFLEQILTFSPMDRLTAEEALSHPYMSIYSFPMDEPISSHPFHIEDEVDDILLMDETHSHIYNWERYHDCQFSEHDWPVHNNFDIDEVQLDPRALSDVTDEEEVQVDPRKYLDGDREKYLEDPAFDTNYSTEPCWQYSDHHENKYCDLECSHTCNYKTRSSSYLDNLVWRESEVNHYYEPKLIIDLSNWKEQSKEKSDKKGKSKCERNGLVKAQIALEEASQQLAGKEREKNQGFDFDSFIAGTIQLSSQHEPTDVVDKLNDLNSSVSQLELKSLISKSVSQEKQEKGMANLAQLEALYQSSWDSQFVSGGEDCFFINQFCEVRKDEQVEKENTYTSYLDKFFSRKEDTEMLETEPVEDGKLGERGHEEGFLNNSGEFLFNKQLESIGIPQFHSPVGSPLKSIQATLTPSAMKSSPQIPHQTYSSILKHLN
# kinome (kinase panel) [14] = biological target: T14, kinome (kinase panel) (Homo sapiens, UniProt P16591); details: FER; 1000 nM; read-out: Percent Control
# T14 construct: purchased Eurofins DiscoverX
# kinome (kinase panel) [15] = biological target: T15, kinome (kinase panel) (Homo sapiens, UniProt Q06418); details: TYRO3; 1000 nM; read-out: Percent Control
# T15 construct: purchased Eurofins DiscoverX
# kinome (kinase panel) [16] = biological target: T16, kinome (kinase panel) (Homo sapiens, UniProt P54646); details: AMPK-alpha2 (Entrez PRKAA2); 1000 nM; read-out: Percent Control
# T16 construct: purchased Eurofins DiscoverX
# kinome (kinase panel) [17] = biological target: T17, kinome (kinase panel) (Homo sapiens, UniProt Q9UM73); details: ALK; 1000 nM; read-out: Percent Control
# T17 construct: purchased Eurofins DiscoverX
# kinome (kinase panel) [18] = biological target: T18, kinome (kinase panel) (Homo sapiens, UniProt P00533, L858R/T790M); details: read-out: Percent Control
# T18 construct: purchased Eurofins DiscoverX
# T18 sequence (P00533 25-1210 T790M/L858R): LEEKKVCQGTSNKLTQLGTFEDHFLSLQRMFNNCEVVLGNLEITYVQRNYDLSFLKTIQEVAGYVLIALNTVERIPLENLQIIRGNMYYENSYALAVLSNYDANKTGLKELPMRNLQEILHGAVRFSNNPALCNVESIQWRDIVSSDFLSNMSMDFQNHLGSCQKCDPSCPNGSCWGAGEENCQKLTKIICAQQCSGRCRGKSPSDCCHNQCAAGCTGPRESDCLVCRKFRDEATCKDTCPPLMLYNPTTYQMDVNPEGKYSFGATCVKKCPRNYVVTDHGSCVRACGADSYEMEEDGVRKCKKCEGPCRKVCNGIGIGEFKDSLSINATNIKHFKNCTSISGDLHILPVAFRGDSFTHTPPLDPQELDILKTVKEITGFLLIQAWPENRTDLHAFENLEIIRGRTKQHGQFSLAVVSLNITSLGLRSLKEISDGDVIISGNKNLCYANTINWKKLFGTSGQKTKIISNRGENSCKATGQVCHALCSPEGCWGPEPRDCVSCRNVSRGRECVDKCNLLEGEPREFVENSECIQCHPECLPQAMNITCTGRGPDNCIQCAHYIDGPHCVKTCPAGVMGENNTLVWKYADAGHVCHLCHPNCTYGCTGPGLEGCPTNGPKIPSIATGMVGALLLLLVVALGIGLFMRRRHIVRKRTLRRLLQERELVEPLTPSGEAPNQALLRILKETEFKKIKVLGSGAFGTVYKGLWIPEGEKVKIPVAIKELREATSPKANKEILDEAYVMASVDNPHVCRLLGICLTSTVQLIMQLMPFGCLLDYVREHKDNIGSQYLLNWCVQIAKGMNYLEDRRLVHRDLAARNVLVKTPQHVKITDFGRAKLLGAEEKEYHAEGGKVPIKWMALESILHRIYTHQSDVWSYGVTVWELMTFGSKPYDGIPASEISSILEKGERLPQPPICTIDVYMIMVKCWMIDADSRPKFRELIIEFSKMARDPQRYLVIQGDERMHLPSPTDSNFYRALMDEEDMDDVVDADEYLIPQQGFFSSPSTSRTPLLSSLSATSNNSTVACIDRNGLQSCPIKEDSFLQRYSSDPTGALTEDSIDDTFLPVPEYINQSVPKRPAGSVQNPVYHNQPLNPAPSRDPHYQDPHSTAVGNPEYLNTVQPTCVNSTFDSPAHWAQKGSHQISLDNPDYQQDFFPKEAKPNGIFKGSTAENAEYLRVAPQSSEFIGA
# kinome (kinase panel) [19] = biological target: T19, kinome (kinase panel) (Homo sapiens, UniProt Q96PN8); details: TSSK3; 1000 nM; read-out: Percent Control
# T19 construct: purchased Eurofins DiscoverX
# kinome (kinase panel) [20] = biological target: T20, kinome (kinase panel) (Homo sapiens, UniProt Q16539); details: p38-alpha (Entrez MAPK14); 1000 nM; read-out: Percent Control
# T20 construct: purchased Eurofins DiscoverX
# T20 sequence (Q16539 whole entry): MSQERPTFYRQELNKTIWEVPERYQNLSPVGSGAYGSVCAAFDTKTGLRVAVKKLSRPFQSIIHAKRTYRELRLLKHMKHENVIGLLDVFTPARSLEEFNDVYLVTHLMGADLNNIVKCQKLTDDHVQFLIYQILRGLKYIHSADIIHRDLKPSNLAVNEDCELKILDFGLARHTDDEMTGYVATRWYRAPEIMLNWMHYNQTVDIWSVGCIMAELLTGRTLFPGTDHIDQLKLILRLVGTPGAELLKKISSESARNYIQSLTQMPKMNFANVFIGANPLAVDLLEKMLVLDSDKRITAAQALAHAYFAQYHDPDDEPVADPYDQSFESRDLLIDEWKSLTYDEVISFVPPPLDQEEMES
# kinome (kinase panel) [21] = biological target: T21, kinome (kinase panel) (Homo sapiens, UniProt P00519, T315I)
# T21 construct: purchased Eurofins DiscoverX
# kinome (kinase panel) [22] = biological target: T22, kinome (kinase panel) (Homo sapiens, UniProt O75460); details: ERN1; 1000 nM; read-out: Percent Control
# T22 construct: purchased Eurofins DiscoverX
# kinome (kinase panel) [23] = biological target: T23, kinome (kinase panel) (Homo sapiens, UniProt P80192); details: MLK1 (Entrez MAP3K9); 1000 nM; read-out: Percent Control
# T23 construct: purchased Eurofins DiscoverX
# kinome (kinase panel) [24] = biological target: T24, kinome (kinase panel) (Homo sapiens, UniProt Q13873); details: BMPR2; 1000 nM; read-out: Percent Control
# T24 construct: purchased Eurofins DiscoverX
# kinome (kinase panel) [25] = biological target: T25, kinome (kinase panel) (Homo sapiens, UniProt P00533, T790M); details: […]; 1000 nM; read-out: Percent Control
# T25 construct: purchased Eurofins DiscoverX
# kinome (kinase panel) [26] = biological target: T26, kinome (kinase panel) (Homo sapiens, UniProt Q6P3R8); details: NEK5; 1000 nM; read-out: Percent Control
# T26 construct: purchased Eurofins DiscoverX
# T26 sequence (Q6P3R8 whole entry): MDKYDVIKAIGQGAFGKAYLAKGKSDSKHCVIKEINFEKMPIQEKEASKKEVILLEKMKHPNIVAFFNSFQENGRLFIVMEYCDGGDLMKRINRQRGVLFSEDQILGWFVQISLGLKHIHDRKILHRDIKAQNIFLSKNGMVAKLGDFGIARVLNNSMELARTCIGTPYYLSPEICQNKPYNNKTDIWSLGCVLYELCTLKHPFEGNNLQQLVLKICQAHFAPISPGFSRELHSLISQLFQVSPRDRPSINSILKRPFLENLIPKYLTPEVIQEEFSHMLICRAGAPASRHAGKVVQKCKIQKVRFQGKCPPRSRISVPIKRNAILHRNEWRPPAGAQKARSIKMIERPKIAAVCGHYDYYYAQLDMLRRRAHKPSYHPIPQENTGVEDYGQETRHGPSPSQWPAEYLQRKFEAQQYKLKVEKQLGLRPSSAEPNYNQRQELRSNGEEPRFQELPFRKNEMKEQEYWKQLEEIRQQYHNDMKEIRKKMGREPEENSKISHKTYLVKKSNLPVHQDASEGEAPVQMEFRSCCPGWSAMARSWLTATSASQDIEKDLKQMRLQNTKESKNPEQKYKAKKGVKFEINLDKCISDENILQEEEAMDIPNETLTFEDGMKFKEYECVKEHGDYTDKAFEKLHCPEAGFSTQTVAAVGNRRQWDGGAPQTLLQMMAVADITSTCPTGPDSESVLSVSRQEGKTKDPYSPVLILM
# kinome (kinase panel) [27] = biological target: T27, kinome (kinase panel) (Homo sapiens, UniProt O00141); details: SGK (SGK1); 1000 nM; read-out: Percent Control
# T27 construct: purchased Eurofins DiscoverX
# kinome (kinase panel) [28] = biological target: T28, kinome (kinase panel) (Homo sapiens, UniProt P68400); details: CSNK2A1; 1000 nM; read-out: Percent Control
# T28 construct: purchased Eurofins DiscoverX
# kinome (kinase panel) [29] = biological target: T29, kinome (kinase panel) (Homo sapiens, UniProt P52564); details: MEK6 (Entrez MAP2K6); 1000 nM; read-out: Percent Control
# T29 construct: purchased Eurofins DiscoverX
# kinome (kinase panel) [30] = biological target: T30, kinome (kinase panel) (Homo sapiens, UniProt P36888, D835V); details: […]; 1000 nM; read-out: Percent Control
# T30 construct: purchased Eurofins DiscoverX
# kinome (kinase panel) [31] = biological target: T31, kinome (kinase panel) (Homo sapiens, UniProt P36507); details: MEK2 (Entrez MAP2K2); 1000 nM; read-out: Percent Control
# T31 construct: purchased Eurofins DiscoverX
# T31 sequence (P36507 whole entry): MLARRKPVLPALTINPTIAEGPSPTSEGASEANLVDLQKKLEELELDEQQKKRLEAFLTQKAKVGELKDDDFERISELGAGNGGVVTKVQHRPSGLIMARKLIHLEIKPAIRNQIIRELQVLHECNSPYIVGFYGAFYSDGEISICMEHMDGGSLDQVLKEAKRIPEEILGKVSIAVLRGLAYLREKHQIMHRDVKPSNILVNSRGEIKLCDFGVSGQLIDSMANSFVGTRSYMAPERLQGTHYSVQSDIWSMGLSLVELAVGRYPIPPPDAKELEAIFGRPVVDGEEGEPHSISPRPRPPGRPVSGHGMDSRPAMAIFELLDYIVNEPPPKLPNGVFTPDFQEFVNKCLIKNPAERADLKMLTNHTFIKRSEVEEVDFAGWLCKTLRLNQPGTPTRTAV
# kinome (kinase panel) [32] = biological target: T32, kinome (kinase panel) (Homo sapiens, UniProt Q13131); details: AMPK-alpha1 (Entrez PRKAA1); 1000 nM; read-out: Percent Control
# T32 construct: purchased Eurofins DiscoverX
# T32 sequence (Q13131 whole entry): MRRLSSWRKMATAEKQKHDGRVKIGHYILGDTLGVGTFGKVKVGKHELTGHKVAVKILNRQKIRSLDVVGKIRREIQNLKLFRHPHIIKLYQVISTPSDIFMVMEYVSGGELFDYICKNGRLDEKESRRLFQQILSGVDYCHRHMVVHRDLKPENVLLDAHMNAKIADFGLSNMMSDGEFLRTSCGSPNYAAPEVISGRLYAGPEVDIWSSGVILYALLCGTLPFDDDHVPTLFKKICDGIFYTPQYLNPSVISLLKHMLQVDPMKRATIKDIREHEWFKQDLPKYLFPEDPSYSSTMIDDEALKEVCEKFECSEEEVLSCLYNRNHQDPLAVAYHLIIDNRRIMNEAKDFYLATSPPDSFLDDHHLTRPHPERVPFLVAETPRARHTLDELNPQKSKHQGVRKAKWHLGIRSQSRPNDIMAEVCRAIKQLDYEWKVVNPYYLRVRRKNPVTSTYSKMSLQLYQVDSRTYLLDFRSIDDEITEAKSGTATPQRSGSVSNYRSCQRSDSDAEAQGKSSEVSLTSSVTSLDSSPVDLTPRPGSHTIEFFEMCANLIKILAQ
# kinome (kinase panel) [33] = biological target: T33, kinome (kinase panel) (Homo sapiens, UniProt Q9NWZ3); details: IRAK4; 1000 nM; read-out: Percent Control
# T33 construct: purchased Eurofins DiscoverX
smiles,measurement,setting,value
CN(C)C(=O)c1cc2cnc(Nc3ccc(-c4csc5c(=O)cc(N6CCOCC6)oc45)cc3)nc2n1C1CCCC1 [SRX3177],remaining binding at 1 µM,kinome (kinase panel) [1],58%
same,remaining binding at 1 µM,kinome (kinase panel) [2],71%
same,remaining binding at 1 µM,kinome (kinase panel) [3],90%
same,remaining binding at 1 µM,kinome (kinase panel) [4],78%
same,remaining binding at 1 µM,kinome (kinase panel) [5],85%
same,remaining binding at 1 µM,kinome (kinase panel) [6],40%
same,remaining binding at 1 µM,kinome (kinase panel) [7],99%
same,remaining binding at 1 µM,kinome (kinase panel) [8],100%
same,remaining binding at 1 µM,kinome (kinase panel) [9],93%
same,remaining binding at 1 µM,kinome (kinase panel) [10],97%
same,remaining binding at 1 µM,kinome (kinase panel) [11],100%
same,remaining binding at 1 µM,kinome (kinase panel) [12],100%
same,remaining binding at 1 µM,kinome (kinase panel) [13],100%
same,remaining binding at 1 µM,kinome (kinase panel) [14],92%
same,remaining binding at 1 µM,kinome (kinase panel) [15],100%
same,remaining binding at 1 µM,kinome (kinase panel) [16],98%
same,remaining binding at 1 µM,kinome (kinase panel) [17],66%
same,remaining binding at 1 µM,kinome (kinase panel) [18],58%
same,remaining binding at 1 µM,kinome (kinase panel) [19],100%
same,remaining binding at 1 µM,kinome (kinase panel) [20],100%
same,Percent Control,kinome (kinase panel) [21],79
same,remaining binding at 1 µM,kinome (kinase panel) [21]; read-out: Percent Control,88%
same,remaining binding at 1 µM,kinome (kinase panel) [22],85%
same,remaining binding at 1 µM,kinome (kinase panel) [23],62%
same,remaining binding at 1 µM,kinome (kinase panel) [24],78%
same,remaining binding at 1 µM,kinome (kinase panel) [25],46%
same,remaining binding at 1 µM,kinome (kinase panel) [26],93%
same,remaining binding at 1 µM,kinome (kinase panel) [27],56%
same,remaining binding at 1 µM,kinome (kinase panel) [28],4.8%
same,remaining binding at 1 µM,kinome (kinase panel) [29],100%
same,remaining binding at 1 µM,kinome (kinase panel) [30],2.1%
same,remaining binding at 1 µM,kinome (kinase panel) [31],50%
same,remaining binding at 1 µM,kinome (kinase panel) [32],100%
same,remaining binding at 1 µM,kinome (kinase panel) [33],45%
